# Assay results: publication PMC6984391, “Anion carriers as potential treatments for cystic fibrosis: transport in cystic fibrosis cells, and additivity to channel-targeting drugs” (Chemical Science, 2019)
# Test system: WT-CFTR-YFP-FRT cells
# Assay: Anionophore anion transport in WT-CFTR-YFP-FRT cells
# Format: cell-based, Fischer rat
# Conditions: anionophore 50 μM, CFTRinh-172 10 μM
# Text: Next, we sought to learn whether the activities of 11, 12, 15, and 19 are additive to that of CFTR. For these studies, we used FRT cells co-expressing wild-type human CFTR and YFP-H148Q/I152L (WT-CFTR-YFP-FRT cells).[28] […] This latter effect is difficult to explain and merits further investigation.
# FRT cells stably expressing the halide sensor YFP-H148Q/I152L6 were generous gifts of AS Verkman (University of California, San Francisco), while CFBE41o- cells7 stably expressing YFP (YFP-CFBE cells) were a generous gift of LJV Galietta (Telethon Institute for Genetics and Medicine). YFP-FRT cells were cultured as described previously for FRT cells8 except that media contained 10% fetal bovine serum, 2 mM L-glutamine and the selection agent G418 (YFP-FRT cells, 0.5 mg ml-1; WT-CFTR-YFP-FRT cells, 0.75 mg ml-1) or zeocin (F508del-CFTR-YFP-FRT cells, 0.5 mg ml-1). YFP-CFBE cells were cultured in minimal essential medium (MEM) supplemented with 10% fetal bovine serum, 2 mM L-glutamine, 100 U ml-1 penicillin and 100 mg ml-1 streptomycin. […]
# Fluorescence plate reader assay […]
# quenching of YFP fluorescence at 37 °C using a microplate reader following the method of Galietta et al..9 The microplate reader (model: FLUORstar Omega; BMG LABTECH Ltd., Aylesbury, UK) was equipped with a syringe pump and excitation (500 ± 10 nm) and emission (535 ± 15 nm) filters (Chroma Technology GmbH, Olching, Germany). […]
# the PBS bathing cells 10 minutes prior to PBS iodide addition, whereas UTP was added to cells with the PBS iodide solution. Fluorescence was measured for 14 seconds; 2 seconds before and 12 seconds after injection of 110 µl PBS iodide solution (137 mM Cl- replaced by I-) into each well (to obtain a final concentration of I- of 100 mM).
# We expressed cell fluorescence values (F) relative to the fluorescence value immediately before I- injection (F0), excluding the initial decrease, which likely represents the quenching of extracellular YFP released from cells and signal reduction accompanying the increase in solution volume bathing cells. […]
row,Compound,effect of CFTRinh-172 on anion transport by anionophore
1,CCOC(=O)[C@]12CC[C@@H](NC(=S)Nc3ccc([N+](=O)[O-])cc3)C[C@@H]1C[C@@H](NC(=S)Nc1ccc([N+](=O)[O-])cc1)CC2 [Compound 12],without effect
2,CCOC(=O)[C@]12CC[C@@H](NC(=S)Nc3cc(C(F)(F)F)cc(C(F)(F)F)c3)C[C@@H]1C[C@@H](NC(=S)Nc1cc(C(F)(F)F)cc(C(F)(F)F)c1)CC2 [Compound 15],"small, albeit significant, increase"
3,FC(F)(F)c1cc(NC(=S)NCCN(CCNC(=S)Nc2cc(C(F)(F)F)cc(C(F)(F)F)c2)CCNC(=S)Nc2cc(C(F)(F)F)cc(C(F)(F)F)c2)cc(C(F)(F)F)c1 [Compound 19],inhibited the activity

# Test system: not listed separately
# Assay: Affinity to Cl- in chloroform by extraction of Et4N+Cl- from water
# Format: binding
# Conditions: extraction of Et4N^+Cl^– from water into chloroform at 303 K; new compound or new data
# Experimental: Measurement of affinities to Et4N+Cl- in chloroform through extraction from […]
# This method is adapted from Clare et al..4 The Et4N+Cl- salt was obtained from Sigma Aldrich and dried under vacuum overnight prior to solution preparation using deionised water that had been passed through a Millipore filtration system. All host solutions were prepared using chloroform that had been deacidified by passage through a flash chromatography column containing basic alumina.
# A solution of host in deacidified chloroform was combined with 10 mL of aqueous Et4N+Cl-guest solution in a sample tube (30 mL). Concentrations and volumes are specified in Table
# S1. A magnetic stirring bar (2 cm) was added to the tube and the lower half was immersed in a water bath heated to 303 K, while the contents were stirred vigorously to achieve good mixing of the two phases. After 30 minutes, stirring was stopped and the two phases were allowed to separate. The majority of the aqueous phase was then removed using a pipette and the remaining organic phase was centrifuged for 10 minutes at 4000 rpm. The chloroform solution was then filtered through Whatman 1PS hydrophobic filter paper to remove any remaining aqueous phase. Solvent from the filtrate was then removed in vacuo and the solid was further dried under vacuum. The resulting solids from the extraction experiments were dissolved in acetone-d6 and the solutions were analysed with 1H NMR spectroscopy.
# A value for the molar ratio (R) was determined by integrating the signal at δ = 3.5 ppm (CH2 of Et4N+Cl-) against one of the receptor signals.
# The values for R obtained from the 1H NMR spectra were used to calculate values for the equilibrium extraction constants Ke:
# Horg + Xaq− + Yaq+ ⇌HX−Yorg+ Ke = org […]
# To convert the extraction constants Ke into association constants Ka it is necessary to obtain the distribution constants Kd for the substrates between aqueous and organic phases:
# The Kd value for tetraethylammonium chloride partitioning between water and chloroform has been determined and reported previously to be 1.269 × 10-5 M-1.5
# The binding constant Ka is then calculated from Ke and Kd:
# H + X−Y+ ⇌ HX−Y+ K = org = e […]
# When [G] > 100 mM, the amount of salt that migrates from the aqueous phase into the organic phase without assistance of the host has to be taken into account by correcting the measured […]
# Table S1. Overview of the conditions and results from the extraction experiments Receptor [H] (mM) [G] (mM) Vorg (mL) Vaq (mL) Rmeasured Ka (M-1)
row,Compound,K a to Cl^– in CHCl3
1,COCCOCCOC(=O)[C@]12CC[C@@H](NC(=O)Nc3ccc(C(F)(F)F)cc3)C[C@@H]1C[C@@H](NC(=O)Nc1ccc(C(F)(F)F)cc1)CC2 [Compound 9],1.4 × 10^8 M^–1
2,COCCOCCOC(=O)[C@]12CC[C@@H](NC(=O)Nc3cc(C(F)(F)F)cc(C(F)(F)F)c3)C[C@@H]1C[C@@H](NC(=O)Nc1cc(C(F)(F)F)cc(C(F)(F)F)c1)CC2 [Compound 10],2.5 × 10^8 M^–1
3,CCCCCCCCOC(=O)[C@]12CC[C@@H](NC(=S)Nc3ccc([N+](=O)[O-])cc3)C[C@@H]1C[C@@H](NC(=S)Nc1ccc([N+](=O)[O-])cc1)CC2 [Compound 13],1.5 × 10^9 M^–1
4,FC(F)(F)c1ccc(NC(=S)NCCN(CCNC(=S)Nc2ccc(C(F)(F)F)cc2)CCNC(=S)Nc2ccc(C(F)(F)F)cc2)cc1 [Compound 18],1.5 × 10^7 ^b M^–1
5,FC(F)(F)c1cc(NC(=S)NCCN(CCNC(=S)Nc2cc(C(F)(F)F)cc(C(F)(F)F)c2)CCNC(=S)Nc2cc(C(F)(F)F)cc(C(F)(F)F)c2)cc(C(F)(F)F)c1 [Compound 19],1.5 × 10^9 ^b M^–1
